Patent publication US6831069B2, “Pyrrolo[2,3-d]pyrimidine nucleoside analogs” (priority 1999, dated 2004)
Several values for one entry are separate records, joined by “and”; a condition that tells them apart may be missing. Identical values can stand only once. Like-named read-outs stand apart in the source and are kept apart here.

Key:
BALB/c mice [1] = test: Contact hypersensitivity (CHS) to DNFB; assay type: in vivo, mouse; conditions: for mean decrease in ear thickness (inhibition of CHS): 24 h post-challenge
Method: Reactivity to the contact allergen, DNFB, was determined, in BALB/c mice, as previously described (Ishii, N., K. Takahashi, H. Nakajima, S. Tanaka, P. W. Askenase. 1994. DNFB contact sensitivity (CS) in BALB/c and C3H/He mice. J. Invest. Dermatol. 102:321). Briefly, mice were sensitized by application of 20 μl of 0.3% DNFB in acetone: olive oil, 4:1 onto the shaved abdomens of naive mice. For optimal elicitation of CHS, the mice were challenged on both sides of each ear with 20 μl of 0.12% DNFB, five days after sensitization. Unsensitized mice were also challenged and used as controls in each experiment. After 24 h, ear thickness measurements were taken and response to DNFB was assessed by subtracting […]. Where indicated, 7-β-D-ribofuranosyl-4-oxopyrrolo-[2,3-d]pyrimidine-5-carboxamidine, at a dose of 6.2 μg in 50 μl PBS (0.3 mg/kg) or 12.4 μg in 100 μl PBS (0.6 mg/kg), was administered by i.p. injection at the time of challenge with DNFB. These doses of 7-β-D-ribofuranosyl-4-oxopyrrolo[2,3-d]pyrimidine-5-carboxamidine gave maximal effect in preliminary optimization studies. Following final ear thickness measurements, mice were sacrificed by cervical dislocation and axillary/lateral axillary lymph nodes were removed. Following isolation of total cellular RNA from isolated lymph node cells, RT-PCR and Southern Blot analyses were performed to monitor for mouse IFNg, IL-2, and IL-10 mRNA levels.
Total cellular RNA was extracted using Trizol reagent (Life Technologies, Gaithersburg, Md.). The cDNA synthesis reaction was performed using oligo (dT)12-18 primer and Superscript II (Life Technologies) reverse transcriptase. The PCR reaction (GeneAmp PCR kit, Perkin-Elmer, Foster City, Calif.) consisted of a 50 μl mixture containing cDNA, dNTPs (each at 200 μM), 0.5 μM of each primer pair and 1.25 unit of Taq polymerase. The primers for human IL-2, IL-10, IL-4, IL-6, IL-1b, IFNg, c-myc, IL-2R, CD40L (Stratagene, La Jolla, Calif.), iNOS (Clontech, Palo Alto, Calif.) and pHE7 ribosomal gene were used. Typical amplification conditions included a 5-minute denaturation at 94° C. and a 5 minute annealing at 60° C. followed by 35 cycles of 1.5 min at 72° C., 45 sec at 94° C. and 45 sec at 60° C., with a final extension time of 10 min at 72° C. The primers for mouse IL-2, IFNγ, and β-actin were obtained from Stratagene and mouse IL-10 from Clontech. Amplification conditions for the Stratagene mouse cytokine primers were a 5 min denaturation at 94° C. and a 5 min annealing at 60° C. followed by 35 cycles of 1.5 min at 72° C., 45 sec at 94° C. and 45 sec at 60° C., with a final extension time of 10 min at 72° C. For IL-10, the PCR conditions were a 5-minute denaturation at 94° C. followed by 35 cycles of 45 sec at 94° C., 45 sec at 60° C. and 2 min at 72° C., with a final extension time of 7 min at 72° C.
For each gene product, the optimum cDNA dilution was determined experimentally and was defined as the cDNA dilution that would achieve a detectable concentration that was well below saturating conditions. […] Equivalent loading was assessed following hybridization with a probe generated from pHE7 sense primer. Washed blots were then analyzed using a Phosphorimager (Biorad, Richmond, Calif.). Relative changes in cytokine or other test mRNA were presented as densitometric readings and normalized for any variations in input RNA by determining the densitometric ratio of mRNA of interest relative to mRNA of the housekeeping gene, pHE7.

[2] = tested on: BALB/c and C57BL/6 lymph node CD4+ T cells; test: Generation of murine Th1 cells, IL-4 and IFNγ ELISA after restimulation; assay type: cell-based, mouse; set-up: murine IFNγ secretion upon restimulation: dose or concentration left out as unconfirmed; conditions: Th1 conditions (anti-CD3, IL-2, IFNγ, IL-12), both mouse strains
BALB/c mice [3] = conditions: mouse, in vivo
[4] = tested on: PMA/ionomycin stimulated T cell; test: Extracellular cytokine levels (ELISA) in PMA/ionomycin activated human T cells, 0 or 10 μM nucleoside; assay type: cell-based; conditions: 48 h, 5 human donors, of activated control level
activated human T cells [5] = test: Analysis of cytokine mRNA (RT-PCR, Southern blot) in PMA-ION activated human T cells; assay type: cell-based
activated human T cells [6] = test: T cell proliferation, [3H]-thymidine incorporation; assay type: cell-based; conditions: 48 h, read-out: peak inhibition of T cell proliferation
activated human T cells [7] = test: MTT cell proliferation assay; assay type: cell-based; conditions: data not shown
[8] = lymph node cells, DNFB-primed mice
[9] = 10 μM, T cells from normal donors and RA patients
[10] = 2, 5 or 10 μM, 6 h or 24 h, PMA-ION, representative of three donors
[11] = pro-/anti-inflammatory mediator study, FIG. 18

Q: Which results are given for `N=C(N)c1cn([C@@H]2O[C@H](CO)[C@@H](O)[C@H]2O)c2nc[nH]c(=O)c12` [ICN 10776, 7-β-D-ribofuranosyl-4-oxopyrrolo-[2,3-d]pyrimidine-5-carboxamidine]?
A: mean decrease in ear thickness (inhibition of CHS) (BALB/c mice [1]; 0.3 mg/kg i.p. at time of challenge): 42%; mean decrease in ear thickness (inhibition of CHS) (BALB/c mice [1]; 0.6 mg/kg i.p. at time of challenge): 68%; IFNγ mRNA levels (BALB/c mice [1]; [8]): substantially reduced; IL-2 mRNA levels (BALB/c mice [1]; [8]): substantially reduced; murine IL-10 mRNA expression (BALB/c mice [1]; [8]): greatly enhanced; murine IL-4 secretion upon restimulation ([2]; co-incubation with 10 mM ICN 10776): elevated levels of IL-4; murine IFNγ secretion upon restimulation ([2]; co-incubation with ICN 10776): low levels of IFNγ; IFNγ mRNA levels (BALB/c mice [3]): substantially reduced; mean decrease in serum nitrite levels (BALB/c mice [3]): 54% and 78%; murine IL-10 mRNA expression (BALB/c mice [3]): greatly enhanced; enhanced activated IL-4 production [4]: 498%±83; suppressed IFNγ [4]: 43%±4; IFNγ mRNA levels (activated human T cells [5]; [9]): suppressed; IL-4 mRNA levels (activated human T cells [5]; [9]): elevated; TNFα mRNA levels (activated human T cells [5]; [9]): suppressed; IFNγ mRNA (activated human T cells [5]; [10]): concomitant decrease; IL-4 mRNA (activated human T cells [5]; [10]): increase in IL-4 mRNA; TNFα mRNA (activated human T cells [5]; [10]): concomitant decrease; IFNγ mRNA (activated human T cells [5]; [11]): suppression; IL-1β mRNA (activated human T cells [5]; [11]): suppressed; IL-2 mRNA (activated human T cells [5]; [11]): suppression; IL-4 mRNA (activated human T cells [5]; [11]): enhancement; IL-6 mRNA (activated human T cells [5]; [11]): suppressed; IL-10 mRNA (activated human T cells [5]; [11]): enhancement of IL-10; TNFα mRNA (activated human T cells [5]; [11]): suppression; c-myc expression (activated human T cells [5]; [11]): suppression; inducible nitric oxide synthase (iNOS) expression (activated human T cells [5]; [11]): reduction; inhibition at 20 µM (activated human T cells [6]): 99%; T cell proliferation (MTT) (activated human T cells [7]): dramatically inhibited T cell proliferation
